From PubChem BioAssay (NCI)
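Five compound concentrations were applied to cells in 96-well plates for 48 hours; endpoints were derived by simple linear interpolation of the resulting dose-response curve. GI50: concentration for 50% inhibition of growth. TGI is the concentration that stops growth completely.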

Key:
Experiment in all cases: NCI tumour cell line growth inhibition, 48 h
M14 melanoma = system: M14 melanoma
MDA-MB-231 breast = system: MDA-MB-231 breast
SF-295 CNS = system: SF-295 CNS
OVCAR-3 ovarian = system: OVCAR-3 ovarian
HT29 colon = system: HT29 colon
HL-60(TB) leukemia = system: HL-60(TB) leukemia
SNB-19 CNS = system: SNB-19 CNS
SK-MEL-28 melanoma = system: SK-MEL-28 melanoma
SF-268 CNS = system: SF-268 CNS
KM12 colon = system: KM12 colon
IGROV1 ovarian = system: IGROV1 ovarian
UO-31 renal = system: UO-31 renal
MCF7 breast = system: MCF7 breast
PC-3 prostate = system: PC-3 prostate
OVCAR-5 ovarian = system: OVCAR-5 ovarian
CAKI-1 renal = system: CAKI-1 renal
A498 renal = system: A498 renal
SK-OV-3 ovarian = system: SK-OV-3 ovarian
MALME-3M melanoma = system: MALME-3M melanoma
UACC-62 melanoma = system: UACC-62 melanoma
HOP-92 NSCLC = system: HOP-92 NSCLC
COLO 205 colon = system: COLO 205 colon
MOLT-4 leukemia = system: MOLT-4 leukemia
ACHN renal = system: ACHN renal
SK-MEL-2 melanoma = system: SK-MEL-2 melanoma
SK-MEL-5 melanoma = system: SK-MEL-5 melanoma
HCC-2998 colon = system: HCC-2998 colon
HCT-116 colon = system: HCT-116 colon
T-47D breast = system: T-47D breast
NCI-H23 lung = system: NCI-H23 lung
U251 CNS = system: U251 CNS
HCT-15 colon = system: HCT-15 colon
SF-539 CNS = system: SF-539 CNS
RXF 393 renal = system: RXF 393 renal
A549 NSCLC = system: A549 NSCLC
UACC-257 melanoma = system: UACC-257 melanoma
EKVX NSCLC = system: EKVX NSCLC
SN12C renal = system: SN12C renal
OVCAR-4 ovarian = system: OVCAR-4 ovarian
LOX IMVI melanoma = system: LOX IMVI melanoma
RPMI-8226 leukemia = system: RPMI-8226 leukemia
MDA-N = system: MDA-N
NCI-H460 lung = system: NCI-H460 lung
NCI-H522 lung = system: NCI-H522 lung
CCRF-CEM leukemia = system: CCRF-CEM leukemia
SW-620 colon = system: SW-620 colon
MDA-MB-435 = system: MDA-MB-435
SR leukemia = system: SR leukemia
HS 578T breast = system: HS 578T breast
NCI/ADR-RES ovarian = system: NCI/ADR-RES ovarian
786-0 renal = system: 786-0 renal
TK-10 renal = system: TK-10 renal
DU-145 prostate = system: DU-145 prostate
OVCAR-8 ovarian = system: OVCAR-8 ovarian
HOP-62 NSCLC = system: HOP-62 NSCLC
SNB-75 CNS = system: SNB-75 CNS
K-562 leukemia = system: K-562 leukemia
NCI-H226 lung = system: NCI-H226 lung

Compound `C[C@]1(O)CC[C@H]2[C@@H]3CCc4cc(O)ccc4[C@H]3CC[C@@]21C` has a TGI (M14 melanoma) of 62.4 µM, a TGI (MDA-MB-231 breast) of 88 µM and a TGI (SF-295 CNS) of 13 µM. For the same compound, the GI50 (OVCAR-3 ovarian) was 0.663 µM, the TGI (OVCAR-3 ovarian) was 42.9 µM and the TGI (HT29 colon) was greater than 100 µM. It also gave a TGI (HL-60(TB) leukemia) of 3.49 µM, a TGI (SNB-19 CNS) greater than 100 µM and a TGI (SK-MEL-28 melanoma) greater than 100 µM. The TGI (SF-268 CNS) was 68.3 µM, the TGI (KM12 colon) was 12.1 µM and the TGI (IGROV1 ovarian) was 27.8 µM. The TGI (UO-31 renal) was 61.2 µM, the TGI (MCF7 breast) was greater than 100 µM and the TGI (PC-3 prostate) was greater than 100 µM. The TGI (OVCAR-5 ovarian) was greater than 100 µM, the TGI (CAKI-1 renal) was greater than 100 µM and the TGI (A498 renal) was 9.61 µM. The TGI (SK-OV-3 ovarian) was greater than 100 µM, the TGI (MALME-3M melanoma) was 0.948 µM and the GI50 (UACC-62 melanoma) was 1.48 µM. For the same compound, the TGI (UACC-62 melanoma) was 37.5 µM, the TGI (HOP-92 NSCLC) was 67.8 µM and the TGI (COLO 205 colon) was greater than 100 µM. The TGI (MOLT-4 leukemia) was greater than 100 µM, the TGI (ACHN renal) was greater than 100 µM and the TGI (SK-MEL-2 melanoma) was greater than 100 µM. The TGI (SK-MEL-5 melanoma) was 11.7 µM, the TGI (HCC-2998 colon) was 0.937 µM and the GI50 (HCT-116 colon) was 0.703 µM. For the same compound, the TGI (HCT-116 colon) was greater than 100 µM, the TGI (T-47D breast) was greater than 100 µM and the TGI (NCI-H23 lung) was greater than 100 µM. For the same compound, the TGI (U251 CNS) was greater than 100 µM, the TGI (HCT-15 colon) was greater than 100 µM and the TGI (SF-539 CNS) was 2.27 µM. The TGI (RXF 393 renal) was 4.05 µM, the TGI (A549 NSCLC) was 77.6 µM and the TGI (UACC-257 melanoma) was 77.1 µM. For the same compound, the TGI (EKVX NSCLC) was 9.08 µM, the GI50 (SN12C renal) was 10.2 µM and the TGI (SN12C renal) was greater than 100 µM. The TGI (OVCAR-4 ovarian) was greater than 100 µM, the TGI (LOX IMVI melanoma) was 72.5 µM and the TGI (RPMI-8226 leukemia) was 4.81 µM. For the same compound, the TGI (MDA-N) was 0.651 µM, the TGI (NCI-H460 lung) was greater than 100 µM and the TGI (NCI-H522 lung) was 5.08 µM. For the same compound, the TGI (CCRF-CEM leukemia) was 80.1 µM, the TGI (SW-620 colon) was greater than 100 µM and the TGI (MDA-MB-435) was 0.761 µM. It also gave a TGI (SR leukemia) of 0.668 µM, a TGI (HS 578T breast) of 4.98 µM and a TGI (NCI/ADR-RES ovarian) greater than 100 µM. The TGI (786-0 renal) was greater than 100 µM, the TGI (TK-10 renal) was 7.51 µM and the GI50 (DU-145 prostate) was 1.98 µM. It also gave a TGI (DU-145 prostate) of 8.25 µM, a TGI (OVCAR-8 ovarian) of 64.8 µM and a GI50 (HOP-62 NSCLC) of 18.4 µM. The TGI (HOP-62 NSCLC) was greater than 100 µM and the TGI (SNB-75 CNS) was greater than 100 µM.

In the case of `O=C(C=P(c1ccccc1)(c1ccccc1)c1ccccc1)c1ccc(-c2cccc([N+](=O)[O-])c2)cc1`, the TGI (M14 melanoma) is reported as 4.64 µM, the TGI (MDA-MB-231 breast) is reported as 8 µM and the TGI (SF-295 CNS) is reported as greater than 100 µM. The TGI (K-562 leukemia) was 7.98 µM, the TGI (OVCAR-3 ovarian) was 9.69 µM and the TGI (HT29 colon) was 3.13 µM. For the same compound, the TGI (HL-60(TB) leukemia) was 5.08 µM, the TGI (SNB-19 CNS) was greater than 100 µM and the TGI (SK-MEL-28 melanoma) was 18.2 µM. It also gave a TGI (NCI-H226 lung) of 19.9 µM, a TGI (SF-268 CNS) greater than 100 µM and a TGI (KM12 colon) of 20 µM. For the same compound, the TGI (UO-31 renal) was 4.8 µM, the TGI (MCF7 breast) was 10.6 µM and the TGI (PC-3 prostate) was 18.6 µM. For the same compound, the TGI (OVCAR-5 ovarian) was 14.9 µM, the TGI (CAKI-1 renal) was 9.38 µM and the TGI (A498 renal) was 9.11 µM. The TGI (SK-OV-3 ovarian) was 18.6 µM, the TGI (MALME-3M melanoma) was 9.31 µM and the TGI (UACC-62 melanoma) was 15.9 µM. The TGI (HOP-92 NSCLC) was 6.92 µM, the TGI (COLO 205 colon) was 3.31 µM and the TGI (MOLT-4 leukemia) was 5.55 µM. The TGI (ACHN renal) was 7.87 µM, the TGI (SK-MEL-2 melanoma) was 3.78 µM and the TGI (SK-MEL-5 melanoma) was 5.91 µM. It also gave a TGI (HCC-2998 colon) of 4.75 µM, a TGI (HCT-116 colon) of 6.24 µM and a TGI (T-47D breast) of 27.1 µM. It also gave a TGI (NCI-H23 lung) of 21.2 µM, a TGI (U251 CNS) of 13.2 µM and a TGI (HCT-15 colon) of 12.7 µM. The TGI (SF-539 CNS) was 15.3 µM, the TGI (RXF 393 renal) was 9.34 µM and the TGI (A549 NSCLC) was 12.7 µM. The TGI (UACC-257 melanoma) was 15.8 µM, the TGI (EKVX NSCLC) was 11.7 µM and the TGI (SN12C renal) was 12 µM. The TGI (OVCAR-4 ovarian) was 9.52 µM, the TGI (LOX IMVI melanoma) was 4.15 µM and the TGI (RPMI-8226 leukemia) was 3.98 µM. For the same compound, the TGI (MDA-N) was 9.09 µM, the TGI (NCI-H460 lung) was 4.27 µM and the TGI (CCRF-CEM leukemia) was 7.25 µM. The TGI (SW-620 colon) was 14.5 µM, the TGI (MDA-MB-435) was 5.4 µM and the TGI (SR leukemia) was 8.09 µM. The TGI (HS 578T breast) was 22.4 µM, the TGI (NCI/ADR-RES ovarian) was 25.1 µM and the TGI (786-0 renal) was 20.8 µM. For the same compound, the TGI (TK-10 renal) was 55.9 µM, the TGI (DU-145 prostate) was 35.1 µM and the TGI (HOP-62 NSCLC) was 27.6 µM. It also gave a TGI (SNB-75 CNS) of 6.86 µM.

Work on `CC(=O)OC1CC2CC(=O)CC1N2C` (stereo not given) yielded a TGI (M14 melanoma) greater than 100 µM, a TGI (MDA-MB-231 breast) greater than 100 µM and a TGI (SF-295 CNS) greater than 100 µM. It also gave a TGI (K-562 leukemia) greater than 100 µM, a TGI (OVCAR-3 ovarian) greater than 100 µM and a TGI (HT29 colon) greater than 100 µM. The TGI (HL-60(TB) leukemia) was greater than 100 µM, the TGI (SNB-19 CNS) was greater than 100 µM and the TGI (SK-MEL-28 melanoma) was greater than 100 µM. For the same compound, the TGI (NCI-H226 lung) was greater than 100 µM, the TGI (SF-268 CNS) was greater than 100 µM and the TGI (KM12 colon) was greater than 100 µM. It also gave a TGI (IGROV1 ovarian) greater than 100 µM, a TGI (UO-31 renal) greater than 100 µM and a TGI (MCF7 breast) greater than 100 µM. For the same compound, the TGI (PC-3 prostate) was greater than 100 µM, the TGI (OVCAR-5 ovarian) was greater than 100 µM and the TGI (CAKI-1 renal) was greater than 100 µM. The TGI (A498 renal) was greater than 100 µM, the TGI (SK-OV-3 ovarian) was greater than 100 µM and the TGI (MALME-3M melanoma) was greater than 100 µM. The TGI (UACC-62 melanoma) was greater than 100 µM, the TGI (HOP-92 NSCLC) was greater than 100 µM and the TGI (COLO 205 colon) was greater than 100 µM. For the same compound, the TGI (MOLT-4 leukemia) was greater than 100 µM, the TGI (ACHN renal) was greater than 100 µM and the TGI (SK-MEL-2 melanoma) was greater than 100 µM. The TGI (SK-MEL-5 melanoma) was greater than 100 µM, the TGI (HCC-2998 colon) was greater than 100 µM and the TGI (HCT-116 colon) was greater than 100 µM. For the same compound, the TGI (T-47D breast) was greater than 100 µM, the TGI (NCI-H23 lung) was greater than 100 µM and the TGI (U251 CNS) was greater than 100 µM. The TGI (HCT-15 colon) was greater than 100 µM, the TGI (SF-539 CNS) was greater than 100 µM and the TGI (RXF 393 renal) was greater than 100 µM. For the same compound, the TGI (A549 NSCLC) was greater than 100 µM, the TGI (UACC-257 melanoma) was greater than 100 µM and the TGI (EKVX NSCLC) was greater than 100 µM. It also gave a TGI (SN12C renal) greater than 100 µM, a TGI (OVCAR-4 ovarian) greater than 100 µM and a TGI (LOX IMVI melanoma) greater than 100 µM. The TGI (RPMI-8226 leukemia) was greater than 100 µM, the TGI (MDA-N) was greater than 100 µM and the TGI (NCI-H460 lung) was greater than 100 µM. It also gave a TGI (NCI-H522 lung) greater than 100 µM, a TGI (CCRF-CEM leukemia) greater than 100 µM and a TGI (SW-620 colon) greater than 100 µM. The TGI (MDA-MB-435) was greater than 100 µM, the TGI (SR leukemia) was greater than 100 µM and the TGI (HS 578T breast) was greater than 100 µM. It also gave a TGI (NCI/ADR-RES ovarian) greater than 100 µM, a TGI (786-0 renal) greater than 100 µM and a TGI (TK-10 renal) greater than 100 µM. The TGI (DU-145 prostate) was greater than 100 µM, the TGI (OVCAR-8 ovarian) was greater than 100 µM and the TGI (HOP-62 NSCLC) was greater than 100 µM. For the same compound, the TGI (SNB-75 CNS) was greater than 100 µM.
